Data from PubChem BioAssay (NCI).
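Where inhibition never reached the appropriate level, the endpoint shown equals the highest concentration tested. Otherwise, values were interpolated linearly from a five-concentration, 48-hour dose response in 96-well plates. TGI: concentration producing complete growth inhibition.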

Legend:
Experiment in all cases: NCI anticancer screen, dose series, 48 h
[1] = tested on: UACC-62 melanoma
[2] = tested on: SNB-75 CNS
[3] = tested on: A498 renal
[4] = tested on: OVCAR-3 ovarian
[5] = tested on: HCT-116 colon
[6] = tested on: RXF 393 renal
[7] = tested on: K-562 leukemia
[8] = tested on: SF-295 CNS
[9] = tested on: HCT-15 colon
[10] = tested on: SN12C renal
[11] = tested on: SR leukemia
[12] = tested on: NCI-H460 lung
[13] = tested on: 786-0 renal
[14] = tested on: MDA-N
[15] = tested on: MOLT-4 leukemia
[16] = tested on: HOP-62 NSCLC
[17] = tested on: MCF7 breast
[18] = tested on: OVCAR-8 ovarian
[19] = tested on: KM12 colon
[20] = tested on: CAKI-1 renal
[21] = tested on: NCI-H23 lung
[22] = tested on: ACHN renal
[23] = tested on: RPMI-8226 leukemia
[24] = tested on: SNB-19 CNS
[25] = tested on: NCI/ADR-RES ovarian
[26] = tested on: SK-MEL-28 melanoma
[27] = tested on: HL-60(TB) leukemia
[28] = tested on: BT-549 breast
[29] = tested on: SF-268 CNS
[30] = tested on: MDA-MB-435
[31] = tested on: TK-10 renal
[32] = tested on: IGROV1 ovarian
[33] = tested on: SF-539 CNS
[34] = tested on: LOX IMVI melanoma
[35] = tested on: DU-145 prostate
[36] = tested on: EKVX NSCLC
[37] = tested on: SK-MEL-2 melanoma
[38] = tested on: SW-620 colon
[39] = tested on: HT29 colon
[40] = tested on: U251 CNS
[41] = tested on: COLO 205 colon
[42] = tested on: SK-OV-3 ovarian
[43] = tested on: SK-MEL-5 melanoma
[44] = tested on: HS 578T breast
[45] = tested on: OVCAR-5 ovarian
[46] = tested on: UACC-257 melanoma
[47] = tested on: MALME-3M melanoma
[48] = tested on: PC-3 prostate
[49] = tested on: MDA-MB-231 breast
[50] = tested on: NCI-H226 lung
[51] = tested on: M14 melanoma
[52] = tested on: CCRF-CEM leukemia
[53] = tested on: UO-31 renal
[54] = tested on: A549 NSCLC
[55] = tested on: T-47D breast
[56] = tested on: NCI-H522 lung

Measured: TGI

O=c1oc2ccccc2n1CCN1CCCCC1
not listed: [53] | [54] | [55] | [56]
> 100 µM: all other assays above

CC1(C)CC(=O)c2c(nc3ccc4ccccc4c3c2-c2ccc(NC(=O)CCC(=O)Nc3ccc(-c4c5c(nc6ccc7ccccc7c46)CC(C)(C)CC5=O)cc3)cc2)C1
not listed: [1] | [3] | [9] | [21] | [28] | [47]
> 100 µM: all other assays above
